Laboratory results reported in patent US11633394B2, “Substituted alkynylene compounds as anticancer agents” (Aurigene Oncology Limited, priority 2018, dated 2023).

How the values were obtained:
NCI-H1792 cells = experiment: Anti proliferative activity in NCI-H1792 cells by XTT assay; type: cell-based; details: Homo sapiens, NCI-H1792, 72 h, H1792 cell line; for IC50: 72 hours incubation; for viability at 30 µM: 72 hours
Description: Example 78: Determination of Anti Proliferative Activity in NCI-H1792 Cells by XTT Assay
NCI-H1792 cells (ATCC CRL-5895) were plated at 2000 cells/well in 96 well flat clear bottom plates (Corning, Cat. No 3596) using complete RPMI media. After 24 hours, compounds of present invention were added to cells from 20 mM stocks made in DMSO (Sigma Cat no. D2650). Each concentration of compound was tested in triplicate with DMSO concentration not exceeding a final percentage of 0.3 in the cells. After 72 hours of incubation in CO2 incubator, XTT (Invitrogen, Cat. no X6493) was added to the wells. XTT was dissolved in serum free media at 1 mg/ml and absorbance readings were taken in spectrophotometer at 465 nm. The data was analysed using graph pad prism software. Positive control (100% survival)=Cells in complete media with 0.3% DMSO; Negative control/blank (0% survival)=Media alone containing 0.3% DMSO.
(§1) The compounds of the present invention were screened in the above mentioned assay and the results are tabulated below.

NCI-H2122 cells = experiment: Anti proliferative activity in NCI-H2122 cells by XTT assay; type: cell-based; details: Homo sapiens, NCI-H2122, 192 h, H2122 cell line; for IC50: 8 days (192 hour) incubation; for viability at 30 µM: 8 days
Description: Example 79: Determination of Anti Proliferative Activity in NCI-H2122 Cells by XTT Assay
NCI-H2122 cells (ATCC CRL-5985) were plated at 1000 cells/well in 96 well flat clear bottom plates (Corning, Cat. No 3596) using complete RPMI-1640 media. After 24 hours, compounds of present invention were added to cells from 10 mM stocks made in DMSO (Sigma Cat no. D2650). Each concentration of compound was tested in triplicate with DMSO concentration not exceeding a final percentage of 0.3 in the cells. Complete RPMI-1640 media changed at Day 3 (72 hour) and Day 6 (144 hour) along with compounds of current invention. After 8 days (192 hour) of incubation assay terminated using 50 μl of XTT reagent (Invitrogen, Cat. no X6493). XTT reagent was made by dissolving 1 mg/mi XTT in serum free media with addition of 25 μM Phenazine methosulfate (sigma Cat. no P9625). Absorbance readings were taken in spectrophotometer at 465 nm. The data was analysed using graph pad prism software. Positive control (100% survival)=Cells in complete media with 0.3% DMSO; Negative control/blank (0% survival)=Media alone containing 0.3% DMSO.
as §1

| SMILES | IC50 (NCI-H1792 cells) [µM] | IC50 (NCI-H2122 cells) [µM] | viability at 30 µM (NCI-H1792 cells) [%] | viability at 30 µM (NCI-H2122 cells) [%] |
| --- | --- | --- | --- | --- |
| C=CC(=O)N1CCN(C(=O)NC(C)C#Cc2ccc3ccccc3c2)CC1 (centres unmarked) [Example 9] | > 25 |  | 47 |  |
| C=CC(=O)N1CCN(C(=O)NC(C)C#Cc2ccc3[nH]ncc3c2)CC1 (centres unmarked) [Example 10] | > 25 |  | 89 |  |
| C=CC(=O)N1CCN(C(=O)NC(C)C#Cc2cccc3c2cnn3C)CC1 (centres unmarked) [Example 11] | > 25 |  | 91 |  |
| C=CC(=O)NC1CCN(C(=O)NC(C)C#Cc2ccc(Cl)c(Cl)c2)CC1 (centres unmarked) [Example 12] | > 25 |  | 83 |  |
| CC(C#Cc1ccc(Cl)c(Cl)c1)NC(=O)N1CCN(C(=O)/C=C/c2ccccc2)CC1 (centres unmarked) [Example 13] | > 25 |  |  |  |
| C/C=C/C(=O)N1CCN(C(=O)NC(C)C#Cc2ccc(Cl)c(Cl)c2)CC1 (centres unmarked) [Example 14] | > 25 |  |  |  |
| CC(C)=CC(=O)N1CCN(C(=O)NC(C)C#Cc2ccc(Cl)c(Cl)c2)CC1 (centres unmarked) [Example 15] | > 25 |  | 90 |  |
| CC(C#Cc1ccc(Cl)c(Cl)c1)NC(=O)N1CCN(C(=O)C(C)Cl)CC1 (centres unmarked) [Example 16] | 10 to 25 |  | 3 |  |
| C=CC(=O)N1CCN(C(=O)NC(C)C#Cc2ccc(Cl)s2)CC1 (centres unmarked) [Example 17] |  | 10 to 25 |  | 19 |
| C=CC(=O)N1CCN(C(=O)NC(C)C#Cc2ccc(OCc3ccccc3)c(Cl)c2)CC1 (centres unmarked) [Example 18] |  | < 10 |  | 1 |
| CC(C#Cc1ccc(Cl)c(Cl)c1)NC(=O)N1CCN(C(=O)CCl)CC1 (centres unmarked) [Example 19] | < 10 |  |  |  |
| CC(C#Cc1ccc(Cl)c(Cl)c1)NC(=O)N1CCN(CC2CO2)CC1 (centres unmarked) [Example 21] |  | 10 to 25 |  | 31 |
| C=CC(=O)N1CCN(C(=O)NC(C)C#Cc2ccc(F)c(Cl)c2)CC1 (centres unmarked) [Example 22] |  | > 25 |  | 49 |
| C=CC(=O)N1CCN(C(=O)NC2(C#Cc3ccc(Cl)c(C4(C)CC4)c3)CC2)CC1 [Example 26] |  | 10 to 25 |  |  |

Now from value to compound, other results behind:

| IC50 (NCI-H1792 cells) [µM] | IC50 (NCI-H2122 cells) [µM] | SMILES | viability at 30 µM (NCI-H1792 cells) [%] | viability at 30 µM (NCI-H2122 cells) [%] |
| --- | --- | --- | --- | --- |
|  | < 10 | C=CC(=O)N1CC(N2CCN(C(=O)NC3(C#Cc4ccc(Cl)c(C5(C)CC5)c4)CC3)CC2)C1 [Example 27] |  |  |
|  | 10 to 25 | C=CC(=O)N1CCN(C(=O)NC(C)C#Cc2ccc(Cl)c(C3(C)CC3)c2)CC1 (centres unmarked) [Example 28] |  |  |
|  | 10 to 25 | C=CC(=O)N1CCN(C(=O)NC(C)C#Cc2ccc(Cl)cc2Cl)CC1 (centres unmarked) [Example 30] |  | 19 |
| > 25 |  | C=CC(=O)NC1CC2CC1CN2C(=O)NC(C)C#Cc1ccc(Cl)c(Cl)c1 (centres unmarked) [Example 55] | 100 |  |
| 10 to 25 |  | C=CS(=O)(=O)NC1CC2CC1CN2C(=O)NC(C)C#Cc1ccc(Cl)c(Cl)c1 (centres unmarked) [Example 56] | 39 |  |
| < 10 |  | CCOC(=O)/C=C/C(=O)N1CCN(C(=O)NC(C)C#Cc2ccc(Cl)c(Cl)c2)CC1 (centres unmarked) [Example 57] | 17 |  |
| < 10 |  | C=CC(=O)N1CCC(C(=O)NC(C)C#Cc2ccc(Cl)c(Cl)c2)CC1 (centres unmarked) [Example 70] | 33 |  |
| > 25 |  | C=CC(=O)N[C@H]1CC[C@H](C(=O)NC(C)C#Cc2ccc(Cl)c(Cl)c2)CC1 (some centres unmarked) [Example 73] | 64 |  |
